Measured values reported in EP3827825A1, “USE OF 3, 4-DIARYLPYRAZOLES AS ANTIBACTERIAL AGENTS” (Wageningen Universiteit, priority 2019, dated 2021).
In brackets after ≈: the same amount, converted by molar mass. Read-outs that look alike come from different tables or passages of the source.

What was measured:
[1] = test system: E. faecium Van A; experiment: Minimal inhibitory concentration (MIC), double-dilution in broth, OD600; type: cell-based, Enterococcus faecium; conditions: unit assumed
Method in brief: (§1)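 Compounds from DMSO stock were twofold serially diluted in broth (starting 50 µg/mL) and inoculated with overnight bacterial culture; after 24 h, OD600 was read and the MIC taken as the lowest concentration without growth. M. marinum was tested in Middlebrook 7H9 broth, read after 3 days at 30 °C.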

[2] = test system: S. aureus Newman; experiment: as above; type: cell-based, Staphylococcus aureus Newman; conditions: unit assumed
Method in brief: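 Twofold broth dilution series of compound from a DMSO stock, against S. aureus Newman from a 1:100-diluted overnight culture. Plates were incubated for 24 hours, then read at OD600. The MIC is the lowest concentration showing no growth.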

[3] = test system: P. multocida; experiment: as above; type: cell-based, Pasteurella multocida; conditions: unit assumed
Method in brief: as §1

[4] = test system: E. coli JW5503; type: cell-based, Escherichia coli; conditions: unit assumed
Method in brief: as §1

[5] = test system: S. suis; experiment: Minimal inhibitory concentration (MIC), double-dilution in broth, OD600; type: cell-based, Streptococcus suis; conditions: unit assumed
Method in brief: as §1

[6] = test system: NRK-52E; experiment: Cell toxicity, Alamar blue assay, 24 hours exposure; type: cell-based; conditions: for IC50: Rattus norvegicus, read-out: IC50 NRK-52E (50 mg/mL stock)
Method in brief: (§2)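 NRK-52E or HEK293 cells were exposed for 24 h to compounds (0.39–500 µg/mL, serum-free medium), mostly in single measurement. After compound removal, resazurin conversion to fluorescent resorufin over 45 min indicated viable cells.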

[7] = test system: HEK293; experiment: as above; type: cell-based; conditions: for IC50: Homo sapiens
Method in brief: as §2

[8] = test system: M. marinum; experiment: Minimal inhibitory concentration (MIC), Middlebrook 7H9 broth, 3 days at 30 °C; type: cell-based, Mycobacterium marinum; conditions: unit assumed
Method in brief: as §1

[9] = HEK293, read-out: IC50 HEK293 (5 mg/mL stock)
[10] = HEK293, read-out: IC50 HEK293 (50 mg/mL stock)

Row | Compound | MIC E. faecium Van A [1] | MIC S. aureus Newman [2] | MIC P. multocida [3] | MIC E. coli JW5503 [4] | MIC S. suis [5] | IC50 [6] | IC50 [7, 9] | MIC M. marinum [8] | IC50 NRK-52E (50 mg/mL stock) [6] | IC50 HEK293 (50 mg/mL stock) ([7]; HEK293, 50 mg/mL stock) | IC50 [7, 10] | IC50 HEK293 (5 mg/mL stock) ([7]; HEK293, 5 mg/mL stock)
1 | COc1ccc(-c2c(-c3ccc(OCC(=O)NN)cc3O)n[nH]c2C(F)(F)F)cc1 [May-17, 2-[3-hydroxy-4-[4-(4-methoxyphenyl)-5-(trifluoromethyl)-1∼{H}-pyrazol-3-yl]phenoxy]acetohy drazide] | 25 µg/mL (≈ 59.2 µM) | 25 µg/mL (≈ 59.2 µM) | > 50 µg/mL | 6.25 µg/mL (≈ 14.8 µM) | 25 µg/mL (≈ 59.2 µM) | 22 µg/mL (≈ 52.2 µM) | 15 µg/mL (≈ 35.5 µM) | > 50 µg/mL | – | – | – | –
2 | Oc1cc(OCc2ccc(Br)cc2)ccc1-c1n[nH]c(C(F)(F)F)c1-c1ccc(Cl)cc1 [May-18, 5-(4-bromobenzyl)oxy-2-[4-(4-chlorophenyl)-5-(trifluoromethyl)-1∼{H}-pyrazol-3-yl]phenol] | 3.13 µg/mL (≈ 5.98 µM) | 0.78 µg/mL (≈ 1.49 µM) | > 50 µg/mL | > 50 µg/mL | 3.13 µg/mL (≈ 5.98 µM) | – | – | 6.25 µg/mL (≈ 11.9 µM) | 4.568 | 4.7 | – | –
3 | CCOc1ccc(-c2n[nH]c(C(F)(F)F)c2-c2ccccc2OC)c(O)c1 [May-20, 5-ethoxy-2-[4-(2-methoxyphenyl)-5-(trifluoromethyl)-1∼{H}-pyrazol-3-yl]phenol] | 12.5 µg/mL (≈ 33 µM) | 6.25 µg/mL (≈ 16.5 µM) | 50 µg/mL (≈ 132 µM) | 3.13 µg/mL (≈ 8.27 µM) | 6.25 µg/mL (≈ 16.5 µM) | ~17.6 µg/mL (≈ 46.5 µM) | 2.1 µg/mL (≈ 5.55 µM) | 25 µg/mL (≈ 66.1 µM) | – | – | – | –
4 | COc1ccc(-c2[nH]nc(C(F)(F)F)c2-c2ccc(Br)cc2)c(O)c1 [May-23, 2-[4-(4-bromophenyl)-5-(trifluoromethyl)-1∼{H}-pyrazol-3-yl]-5-methoxy-phenol] | 3.13 µg/mL (≈ 7.58 µM) | 3.13 µg/mL (≈ 7.58 µM) | 50 µg/mL (≈ 121 µM) | 3.13 µg/mL (≈ 7.58 µM) | 6.25 µg/mL (≈ 15.1 µM) | ~2.81 µg/mL (≈ 6.81 µM) | 8.38 µg/mL (≈ 20.3 µM) | > 50 µg/mL | – | – | 9 µg/mL (≈ 21.8 µM) | –
5 | Oc1cc(OCc2ccccc2)ccc1-c1[nH]nc(C(F)(F)F)c1-c1ccccc1 [May-24, 5-benzoxy-2-[4-phenyl-5-(trifluoromethyl)-1∼{H}-pyrazol-3-yl]phenol] | 1.56 µg/mL (≈ 3.8 µM) | 1.56 µg/mL (≈ 3.8 µM) | > 50 µg/mL | 25 µg/mL (≈ 60.9 µM) | 3.13 µg/mL (≈ 7.63 µM) | ~3.86 µg/mL (≈ 9.41 µM) | – | 25 µg/mL (≈ 60.9 µM) | – | – | 4.8 µg/mL (≈ 11.7 µM) | –
6 | CCOc1ccc(-c2[nH]nc(C(F)(F)F)c2-c2ccc(Cl)cc2)c(O)c1 [May-27, 2-[4-(4-chlorophenyl)-5-(trifluoromethyl)-1∼{H}-pyrazol-3-yl]-5-ethoxy-phenol] | 3.13 µg/mL (≈ 8.18 µM) | 3.13 µg/mL (≈ 8.18 µM) | 25 µg/mL (≈ 65.3 µM) | 3.13 µg/mL (≈ 8.18 µM) | 3.13 µg/mL (≈ 8.18 µM) | 181 µg/mL (≈ 472 µM) | 10.8 µg/mL (≈ 28.3 µM) | 50 µg/mL (≈ 131 µM) | – | – | 118 µg/mL (≈ 309 µM) | –
7 | CCOc1cc(O)c(-c2n[nH]c(C(F)(F)F)c2-c2ccccc2)cc1CC [Sep-2, 5-ethoxy-4-ethyl-2-[4-phenyl-5-(trifluoromethyl)-1∼{H}-pyrazol-3-yl]phenol] | 25 µg/mL (≈ 66.4 µM) | 6.25 µg/mL (≈ 16.6 µM) | > 50 µg/mL | 25 µg/mL (≈ 66.4 µM) | 25 µg/mL (≈ 66.4 µM) | ~17.4 µg/mL (≈ 46.2 µM) | 3.97 µg/mL (≈ 10.5 µM) | > 50 µg/mL | – | – | – | –
8 | C=C(C)COc1ccc(-c2[nH]nc(C(F)(F)F)c2-c2ccccc2)c(O)c1 [Sep-9, 5-(2-methylallyloxy)-2-[4-phenyl-5-(trifluoromethyl)-1∼{H}-pyrazol-3-yl]phenol] | 0.78 µg/mL (≈ 2.08 µM) | 6.25 µg/mL (≈ 16.7 µM) | 50 µg/mL (≈ 134 µM) | 6.25 µg/mL (≈ 16.7 µM) | 25 µg/mL (≈ 66.8 µM) | ~10.9 µg/mL (≈ 29 µM) | 16.1 µg/mL (≈ 43.1 µM) | > 50 µg/mL | – | – | – | –
9 | Oc1cc(OCc2ccc(Br)cc2)ccc1-c1n[nH]c(C(F)(F)F)c1-c1ccc(Cl)cc1 [Sep-13, 5-(4-bromobenzyl)oxy-2-[4-(4-chlorophenyl)-5-(trifluoromethyl)-1∼{H}-pyrazol-3-yl]phenol] | 12.5 µg/mL (≈ 23.9 µM) | 1.56 µg/mL (≈ 2.98 µM) | > 50 µg/mL | > 50 µg/mL | 6.25 µg/mL (≈ 11.9 µM) | – | – | 25 µg/mL (≈ 47.7 µM) | 10.89 | – | – | 16.51
10 | Oc1cc(OCc2ccccc2Cl)ccc1-c1n[nH]c(C(F)(F)F)c1-c1ccc(Cl)cc1 [Sep-25, 5-(2-chlorobenzyl)oxy-2-[4-(4-chlorophenyl)-5-(trifluoromethyl)-1∼{H}-pyrazol-3-yl]pheno] | 12.5 µg/mL (≈ 26.1 µM) | 3.13 µg/mL (≈ 6.53 µM) | > 50 µg/mL | > 50 µg/mL | 12.5 µg/mL (≈ 26.1 µM) | 17.3 µg/mL (≈ 36 µM) | 19.3 µg/mL (≈ 40.2 µM) | 50 µg/mL (≈ 104 µM) | – | – | 18.1 µg/mL (≈ 37.7 µM) | –
11 | C=C(C)COc1ccc(-c2[nH]nc(C(F)(F)F)c2-c2ccc(Cl)cc2)c(O)c1 [Sep-29, 2-[4-(4-chlorophenyl)-5-(trifluoromethyl)-1∼{H}-pyrazol-3-yl]-5-(2-methylallyloxy)phenol] | 6.25 µg/mL (≈ 15.3 µM) | 3.13 µg/mL (≈ 7.66 µM) | > 50 µg/mL | 12.5 µg/mL (≈ 30.6 µM) | 12.5 µg/mL (≈ 30.6 µM) | 19.9 µg/mL (≈ 48.7 µM) | 16.4 µg/mL (≈ 40.1 µM) | > 50 µg/mL | – | – | – | –
